Data reported in the Kinase Knowledgebase extract (Sharma et al. 2016).

target: EGFR (UniProt P00533)
Sequence (P00533 whole entry, looked up): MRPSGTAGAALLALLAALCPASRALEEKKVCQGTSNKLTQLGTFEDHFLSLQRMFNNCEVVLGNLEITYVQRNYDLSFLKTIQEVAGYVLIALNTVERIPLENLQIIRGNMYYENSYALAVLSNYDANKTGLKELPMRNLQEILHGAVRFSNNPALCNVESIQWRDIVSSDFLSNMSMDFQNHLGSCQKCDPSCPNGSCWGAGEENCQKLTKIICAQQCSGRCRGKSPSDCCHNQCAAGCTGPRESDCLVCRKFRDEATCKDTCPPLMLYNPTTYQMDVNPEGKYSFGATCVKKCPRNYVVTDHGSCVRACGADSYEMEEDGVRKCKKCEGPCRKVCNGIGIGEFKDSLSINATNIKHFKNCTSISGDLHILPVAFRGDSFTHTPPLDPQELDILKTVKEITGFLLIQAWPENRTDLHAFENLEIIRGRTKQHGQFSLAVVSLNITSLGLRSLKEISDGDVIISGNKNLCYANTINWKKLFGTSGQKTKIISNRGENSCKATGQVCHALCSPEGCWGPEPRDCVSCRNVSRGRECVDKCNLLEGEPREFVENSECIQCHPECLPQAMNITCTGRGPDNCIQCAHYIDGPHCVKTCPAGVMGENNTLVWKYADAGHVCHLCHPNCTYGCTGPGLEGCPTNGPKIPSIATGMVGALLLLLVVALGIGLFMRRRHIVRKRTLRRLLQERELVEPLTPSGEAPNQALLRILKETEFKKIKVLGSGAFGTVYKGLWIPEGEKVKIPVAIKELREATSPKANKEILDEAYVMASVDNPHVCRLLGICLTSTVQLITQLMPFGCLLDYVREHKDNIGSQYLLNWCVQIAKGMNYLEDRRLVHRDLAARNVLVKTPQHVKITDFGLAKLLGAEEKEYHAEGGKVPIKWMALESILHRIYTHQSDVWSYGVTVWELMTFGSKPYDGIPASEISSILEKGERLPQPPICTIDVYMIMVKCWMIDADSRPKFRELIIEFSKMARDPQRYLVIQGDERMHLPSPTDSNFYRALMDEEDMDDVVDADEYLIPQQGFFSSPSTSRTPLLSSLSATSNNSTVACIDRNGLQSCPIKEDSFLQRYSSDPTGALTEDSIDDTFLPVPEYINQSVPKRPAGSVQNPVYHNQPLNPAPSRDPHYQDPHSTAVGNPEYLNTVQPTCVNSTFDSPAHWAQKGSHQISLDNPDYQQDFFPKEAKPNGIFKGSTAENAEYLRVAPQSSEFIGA

COc1cc2c(Nc3ccc(Cl)c(Cl)c3)ncnc2cc1OCC1CN(C)C(C)(C)C(=O)O1 (stereo unspecified) and COc1cc2c(Nc3ccc(Cl)c(Cl)c3)ncnc2cc1OCC1CNCC(C)(C)O1 (stereo unspecified) cannot be ordered by IC50: < 50 nM for the first, < 50 nM for the second.

COc1cc2c(Nc3ccc(F)c(Cl)c3F)ncnc2cc1OCC1CN(C)C(C)(C)CO1 (stereo unspecified) and COc1cc2c(Nc3ccc(Br)c(Cl)c3Cl)ncnc2cc1OCC1CN(C)C(C)(C)CO1 (stereo unspecified) cannot be ordered by IC50: < 50 nM for the first, < 50 nM for the second.

CCCCCCCN1CCOC(COc2cc3ncnc(Nc4ccc(Cl)c(Cl)c4)c3cc2OC)C1 (stereo unspecified) and CCCCN1CCOC(COc2cc3ncnc(Nc4ccc(Cl)c(Cl)c4)c3cc2OC)C1 (stereo unspecified) cannot be ordered by IC50: < 50 nM for the first, < 50 nM for the second.

CCC1(C)CN(C)CC(COc2cc3ncnc(Nc4ccc(Cl)c(Cl)c4)c3cc2OC)O1 (stereo unspecified) and CCCN1CCOC(COc2cc3ncnc(Nc4ccc(Cl)c(Cl)c4)c3cc2OC)C1 (stereo unspecified) cannot be ordered by IC50: < 50 nM for the first, < 50 nM for the second.

COc1cc2c(Nc3ccc(Cl)c(Cl)c3)ncnc2cc1OCC1CN(S(C)(=O)=O)CCCO1 (stereo unspecified) and CCS(=O)(=O)N1CCOC(COc2cc3ncnc(Nc4ccc(Cl)c(Cl)c4)c3cc2OC)C1 (stereo unspecified) cannot be ordered by IC50: < 50 nM for the first, < 50 nM for the second.

COc1cc2c(Nc3ccc(Cl)c(Cl)c3)ncnc2cc1OCC1CN(C(=O)c2cccnc2Cl)CCO1 (stereo unspecified) and COc1cc2c(Nc3ccc(Cl)c(Cl)c3)ncnc2cc1OCC1CN(C(=O)c2ccoc2)CCO1 (stereo unspecified) cannot be ordered by IC50: < 50 nM for the first, < 50 nM for the second.

COc1cc2c(Nc3ccc(Cl)c(Cl)c3)ncnc2cc1OCC1CCCO1 (stereo unspecified) and COc1cc2c(Nc3ccc(Cl)c(Cl)c3)ncnc2cc1OCC1CC1 cannot be ordered by IC50: < 50 nM for the first, < 50 nM for the second.

COc1cc2c(Nc3ccc(Cl)cc3F)ncnc2cc1OCC1CN(C)CCO1 (stereo unspecified) and COc1cc2c(Nc3ccc(Br)cc3F)ncnc2cc1OCC1CN(C)CCO1 (stereo unspecified) cannot be ordered by IC50: < 50 nM for the first, < 50 nM for the second.

COc1cc2c(Nc3ccc(Cl)c(Cl)c3)ncnc2cc1OCc1csc(C2CCCCN2)n1 (stereo unspecified) and COc1cc2c(Nc3ccc(Cl)c(Cl)c3)ncnc2cc1OCc1csc([C@@H]2CSCN2)n1 cannot be ordered by IC50: < 50 nM for the first, < 50 nM for the second.

COc1cc2c(Nc3ccc(Cl)c(Cl)c3F)ncnc2cc1OC[C@H]1C[C@@H]2CN(C)C[C@@H]2C1 and COc1cc2c(Nc3ccc(Cl)c(Cl)c3F)ncnc2cc1OC[C@@H]1CN2CCC[C@H]2CO1 cannot be ordered by IC50: < 50 nM for the first, < 50 nM for the second.

COc1cc2c(Nc3cc(Cl)c(Br)cc3F)ncnc2cc1OC[C@@H]1CN2CCC[C@H]2CO1 and COc1cc2c(Nc3ccc(Br)c(Cl)c3F)ncnc2cc1OC[C@@H]1CN2CCC[C@H]2CO1 cannot be ordered by IC50: < 50 nM for the first, < 50 nM for the second.

COc1cc2c(Nc3ccc(Cl)c(Cl)c3)ncnc2cc1OCCN1CCOCC1 and COc1cc2c(Nc3ccc(Cl)c(Cl)c3)ncnc2cc1OCCC1CCCN1C (stereo unspecified) cannot be ordered by IC50: < 50 nM for the first, < 50 nM for the second.

Compared with COc1cc2c(Nc3ccc(Cl)c(Cl)c3)ncnc2cc1OCc1csc2ccc(Cl)cc12, COc1cc2c(Nc3ccc(Cl)c(Cl)c3)ncnc2cc1OCc1c(F)cccc1F is lower in IC50: 50 to 1000 nM for the first, < 50 nM for the second.

COc1cccc(CC(=O)N2CCOC(COc3cc4ncnc(Nc5ccc(Cl)c(Cl)c5)c4cc3OC)C2)c1 (stereo unspecified) and COc1cc2c(Nc3ccc(Cl)c(Cl)c3)ncnc2cc1OCC1CN(C(=O)c2cccc3ccccc23)CCO1 (stereo unspecified) cannot be ordered by IC50: < 50 nM for the first, < 50 nM for the second.

COc1cc2c(Nc3ccc(Cl)c(Cl)c3)ncnc2cc1OCc1nc(-c2ccc(O)c(C(N)=O)c2)cs1 and COc1cc2c(Nc3ccc(Cl)c(Cl)c3)ncnc2cc1OCc1csc(COC(=O)c2ccccc2)n1 cannot be ordered by IC50: < 50 nM for the first, < 50 nM for the second.

COc1cc2c(Nc3cc(Cl)c(Br)cc3F)ncnc2cc1O[C@H]1CO[C@H]2[C@@H]1OC[C@@H]2OC and COc1cc2c(Nc3cc(Cl)c(Cl)cc3F)ncnc2cc1O[C@H]1CO[C@H]2[C@@H]1OC[C@@H]2OC cannot be ordered by IC50: < 50 nM for the first, < 50 nM for the second.

CCO[C@H]1CO[C@H]2[C@@H]1OC[C@@H]2Oc1cc2ncnc(Nc3ccc(Br)c(Cl)c3)c2cc1OC and COc1cc2c(Nc3ccc(Br)c(Cl)c3)ncnc2cc1O[C@H]1CO[C@@H]2[C@H]1OC[C@@H]2N cannot be ordered by IC50: < 50 nM for the first, < 50 nM for the second.

COc1cc2c(Nc3cc(Cl)c(Cl)cc3F)ncnc2cc1OC[C@@H]1CN2CCOC[C@H]2CO1 and COc1cc2c(Nc3cc(Cl)c(Cl)cc3F)ncnc2cc1OC[C@H]1CN2CCOC[C@H]2CO1 cannot be ordered by IC50: < 50 nM for the first, < 50 nM for the second.

COc1cc2c(Nc3ccc(Cl)c(Cl)c3)ncnc2cc1OCC1CN(C(=O)c2ccc3c(c2)OCO3)CCO1 (stereo unspecified) and COc1cc2c(Nc3ccc(Cl)c(Cl)c3)ncnc2cc1OCC1CN(C(=O)c2c(F)ccc(F)c2F)CCO1 (stereo unspecified) cannot be ordered by IC50: < 50 nM for the first, < 50 nM for the second.

COc1cc2c(Nc3ccc(Cl)c(Cl)c3)ncnc2cc1O[C@H]1CO[C@H]2[C@@H]1OC[C@@H]2OC and COc1cc2c(Nc3ccc(Cl)c(Cl)c3F)ncnc2cc1O[C@H]1CO[C@H]2[C@@H]1OC[C@@H]2OC cannot be ordered by IC50: < 50 nM for the first, < 50 nM for the second.

COc1cc2c(Nc3cccc(Cl)c3C)ncnc2cc1O[C@@H]1CO[C@@H]2[C@H]1OC[C@H]2F and COc1cc2c(Nc3ccccc3Br)ncnc2cc1O[C@@H]1CO[C@@H]2[C@H]1OC[C@H]2F cannot be ordered by IC50: < 50 nM for the first, < 50 nM for the second.

COc1cc2c(Nc3ccc(F)cc3F)ncnc2cc1O[C@@H]1CO[C@@H]2[C@H]1OC[C@H]2F and COc1cc2c(Nc3ccc(Br)cc3F)ncnc2cc1O[C@@H]1CO[C@@H]2[C@H]1OC[C@H]2F cannot be ordered by IC50: < 50 nM for the first, < 50 nM for the second.

COc1cc2c(Nc3ccc(Br)c(Cl)c3)ncnc2cc1O[C@H]1CO[C@H]2[C@@H]1OCC21OCCO1 and COc1cc2c(Nc3ccc(Br)c(Cl)c3)ncnc2cc1O[C@H]1CO[C@H]2[C@@H]1OC[C@@]21COC(C)(C)O1 cannot be ordered by IC50: < 50 nM for the first, < 50 nM for the second.

COc1cc2c(Nc3cc(Cl)c(Cl)c(Cl)c3)ncnc2cc1O[C@@H]1CO[C@@H]2[C@H]1OC[C@H]2F and COc1cc2c(Nc3cccc(Br)c3)ncnc2cc1O[C@@H]1CO[C@@H]2[C@H]1OC[C@H]2F cannot be ordered by IC50: < 50 nM for the first, < 50 nM for the second.

COc1cc2c(Nc3ccc(Cl)c(Cl)c3)ncnc2cc1OC[C@@H]1CN2CCC[C@@H]2CO1 and COc1cc2c(Nc3ccc(Cl)c(Cl)c3)ncnc2cc1OC[C@@H]1CN2CCC[C@H]2CO1 cannot be ordered by IC50: < 50 nM for the first, < 50 nM for the second.

CCCCC(CC)C(=O)N1CCOC(COc2cc3ncnc(Nc4ccc(Cl)c(Cl)c4)c3cc2OC)C1 (stereo unspecified) and COc1cc2c(Nc3ccc(Cl)c(Cl)c3)ncnc2cc1OCC1CN(C(=O)C(C)(C)C)CCO1 (stereo unspecified) cannot be ordered by IC50: < 50 nM for the first, < 50 nM for the second.

COc1cc2c(Nc3ccc(N4CCN(C)CC4)c(F)c3)ncnc2cc1O[C@H]1CO[C@@H]2[C@H]1OC[C@@H]2F and COc1cc2c(Nc3ccccc3F)ncnc2cc1O[C@@H]1CO[C@@H]2[C@H]1OC[C@H]2F cannot be ordered by IC50: < 50 nM for the first, < 50 nM for the second.

COc1cc2c(Nc3ccc(Cl)c(Cl)c3)ncnc2cc1OCc1cscn1 and COc1cc2c(Nc3ccc(Cl)c(Cl)c3)ncnc2cc1OCc1csc(CN2CCCC2)n1 cannot be ordered by IC50: < 50 nM for the first, < 50 nM for the second.

COc1cc2c(Nc3ccc(Cl)c(Cl)c3)ncnc2cc1OCc1noc(-c2ccccc2)n1 and COc1cc2c(Nc3ccc(Cl)c(Cl)c3)ncnc2cc1OCc1noc(C2CCCN2)n1 (stereo unspecified) cannot be ordered by IC50: < 50 nM for the first, < 50 nM for the second.

COc1cc2c(Nc3ccc(Cl)c(Cl)c3)ncnc2cc1OC1CCCC1 and COc1cc2c(Nc3ccc(Cl)c(Cl)c3)ncnc2cc1OCC1CN(C2CCCC2)CCO1 (stereo unspecified) cannot be ordered by IC50: < 50 nM for the first, < 50 nM for the second.

COc1cc2c(Nc3ccc(Cl)c(Cl)c3F)ncnc2cc1OC[C@@H]1CN2CCCC[C@@H]2C(=O)N1 and COc1cc2c(Nc3ccc(F)c(Cl)c3F)ncnc2cc1OC[C@@H]1CN2CCOC[C@H]2CO1 cannot be ordered by IC50: < 50 nM for the first, < 50 nM for the second.

CN1CCOC(COc2cc3ncnc(Nc4ccc(Cl)c(Cl)c4)c3cc2O)C1 (stereo unspecified) and COCCOc1cc2c(Nc3ccc(Cl)c(Cl)c3)ncnc2cc1OCC1CN(C)CCO1 (stereo unspecified) cannot be ordered by IC50: < 50 nM for the first, < 50 nM for the second.

COc1cc2c(Nc3ccc(Cl)c(Cl)c3)ncnc2cc1OCc1csc(N2CCOCC2)n1 and COc1cc2c(Nc3ccc(Cl)c(Cl)c3)ncnc2cc1OCc1csc(N2CCN(C)CC2)n1 cannot be ordered by IC50: < 50 nM for the first, < 50 nM for the second.

COc1cc2c(Nc3ccc(Cl)c(Cl)c3)ncnc2cc1OCc1nc(N2CCOCC2)no1 and COc1cc2c(Nc3ccc(Cl)c(Cl)c3)ncnc2cc1OCc1nc(N2CCN(C)CC2)no1 cannot be ordered by IC50: < 50 nM for the first, < 50 nM for the second.

First: COc1cc2c(Nc3ccc(Cl)c(Cl)c3)ncnc2cc1OCc1csc(-c2ccc(C(F)(F)F)cc2)n1
Second: CCN1CCC[C@H]1c1nc(COc2cc3ncnc(Nc4ccc(Cl)c(Cl)c4)c3cc2OC)cs1
The IC50 of the first is higher: 50 to 1000 nM for the first, < 50 nM for the second. The second is the more potent here.

COCCOc1cc2c(Nc3ccc(Cl)c(Cl)c3)ncnc2cc1OCC1CNCCO1 (stereo unspecified) and CCOc1cc2c(Nc3ccc(Cl)c(Cl)c3)ncnc2cc1OCC1CNCCO1 (stereo unspecified) cannot be ordered by IC50: < 50 nM for the first, < 50 nM for the second.

COc1cc2c(Nc3ccc(Cl)c(Cl)c3)ncnc2cc1OCC1CN(CC=C(C)C)CCO1 (stereo unspecified) and C=CCCCN1CCOC(COc2cc3ncnc(Nc4ccc(Cl)c(Cl)c4)c3cc2OC)C1 (stereo unspecified) cannot be ordered by IC50: < 50 nM for the first, < 50 nM for the second.

COc1cc2c(Nc3ccc(Cl)c(Cl)c3)ncnc2cc1OCC1CN(CC(=O)c2ccccc2)CCO1 (stereo unspecified) and COc1cc2c(Nc3ccc(Cl)c(Cl)c3)ncnc2cc1OCC1CN(CCCCF)CCO1 (stereo unspecified) cannot be ordered by IC50: < 50 nM for the first, < 50 nM for the second.

COc1cc2c(Nc3ccc(Br)c(Cl)c3F)ncnc2cc1OCC1CO[C@@H]2[C@@H](OC)CO[C@H]12 (stereo partly specified) and COc1cc2c(Nc3ccc(Br)c(Cl)c3Cl)ncnc2cc1OC[C@@H]1CN2CCOC[C@H]2CO1 cannot be ordered by IC50: < 50 nM for the first, < 50 nM for the second.

COc1cc2c(Nc3ccc(Cl)c(Cl)c3)ncnc2cc1OCCC1CNC(C)(C)CO1 (stereo unspecified) and COc1cc2c(Nc3ccc(Cl)c(Cl)c3)ncnc2cc1OC[C@H]1CN2CCC[C@H]2CO1 cannot be ordered by IC50: < 50 nM for the first, < 50 nM for the second.

COc1cc2c(Nc3ccc(Cl)c(Cl)c3)ncnc2cc1OCc1csc(C2CCN(C)CC2)n1 and COc1cc2c(Nc3ccc(Cl)c(Cl)c3)ncnc2cc1OCc1csc(C2CCCCN2C)n1 (stereo unspecified) cannot be ordered by IC50: < 50 nM for the first, < 50 nM for the second.

CCN1CCC[C@H]1c1noc(COc2cc3ncnc(Nc4ccc(Cl)c(Cl)c4)c3cc2OC)n1 and CCN1CCC(c2nc(COc3cc4ncnc(Nc5ccc(Cl)c(Cl)c5)c4cc3OC)no2)CC1 cannot be ordered by IC50: < 50 nM for the first, < 50 nM for the second.

COC[C@@]1(OC)CO[C@@H]2[C@H]1OC[C@H]2Oc1cc2ncnc(Nc3ccc(Br)c(Cl)c3)c2cc1OC and COc1cc(Nc2ncnc3cc(O[C@@H]4CO[C@@H]5[C@H]4OC[C@H]5F)c(OC)cc23)c(OC)cc1Cl cannot be ordered by IC50: < 50 nM for the first, < 50 nM for the second.

COc1cc2c(Nc3ccc(Cl)c(Cl)c3)ncnc2cc1OCCN1C(=O)c2ccccc2C1=O and COc1cc2c(Nc3ccc(Cl)c(Cl)c3)ncnc2cc1OCC1CN(CC2CCCCC2)CCCO1 (stereo unspecified) cannot be ordered by IC50: < 50 nM for the first, < 50 nM for the second.

COc1cc2c(Nc3ccc(Br)c(Cl)c3Cl)ncnc2cc1OC[C@H]1CN2CCOC[C@H]2CO1 and COc1cc2c(Nc3cc(Cl)c(Cl)c(Cl)c3)ncnc2cc1OCC1CN(C)CCO1 (stereo unspecified) cannot be ordered by IC50: < 50 nM for the first, < 50 nM for the second.

In the case of COc1cc2c(Nc3ccc(Cl)c(Cl)c3)ncnc2cc1OCc1noc(C2CCN(C(=O)OC(C)(C)C)CC2)n1, the IC50 is reported as < 50 nM.
